Measured values taken from patent US6020342A, “Fused imidazo[1,2-A]pyridines” (Shinnippon Pharmaceutical, Inc., priority 1995, dated 2000).

Experiments:
H^+ /K^+ -ATPase = biological target: T1, H^+ /K^+ -ATPase (Sus scrofa, UniProt P19156); experiment: Inhibitory Action on H^+ /K^+ -ATPase Activity; format: biochemical; conditions: microsome fraction from porcine gastric mucosa, pH7.4, 37° C., 30 min preincubation, 15 min reaction
T1 construct: a microsome fraction prepared from porcine gastric mucosa was used as a standard enzyme; from tissue; host or cells: porcine gastric mucosa, microsome fraction
T1 sequence (P19156 2-1034 limits assumed): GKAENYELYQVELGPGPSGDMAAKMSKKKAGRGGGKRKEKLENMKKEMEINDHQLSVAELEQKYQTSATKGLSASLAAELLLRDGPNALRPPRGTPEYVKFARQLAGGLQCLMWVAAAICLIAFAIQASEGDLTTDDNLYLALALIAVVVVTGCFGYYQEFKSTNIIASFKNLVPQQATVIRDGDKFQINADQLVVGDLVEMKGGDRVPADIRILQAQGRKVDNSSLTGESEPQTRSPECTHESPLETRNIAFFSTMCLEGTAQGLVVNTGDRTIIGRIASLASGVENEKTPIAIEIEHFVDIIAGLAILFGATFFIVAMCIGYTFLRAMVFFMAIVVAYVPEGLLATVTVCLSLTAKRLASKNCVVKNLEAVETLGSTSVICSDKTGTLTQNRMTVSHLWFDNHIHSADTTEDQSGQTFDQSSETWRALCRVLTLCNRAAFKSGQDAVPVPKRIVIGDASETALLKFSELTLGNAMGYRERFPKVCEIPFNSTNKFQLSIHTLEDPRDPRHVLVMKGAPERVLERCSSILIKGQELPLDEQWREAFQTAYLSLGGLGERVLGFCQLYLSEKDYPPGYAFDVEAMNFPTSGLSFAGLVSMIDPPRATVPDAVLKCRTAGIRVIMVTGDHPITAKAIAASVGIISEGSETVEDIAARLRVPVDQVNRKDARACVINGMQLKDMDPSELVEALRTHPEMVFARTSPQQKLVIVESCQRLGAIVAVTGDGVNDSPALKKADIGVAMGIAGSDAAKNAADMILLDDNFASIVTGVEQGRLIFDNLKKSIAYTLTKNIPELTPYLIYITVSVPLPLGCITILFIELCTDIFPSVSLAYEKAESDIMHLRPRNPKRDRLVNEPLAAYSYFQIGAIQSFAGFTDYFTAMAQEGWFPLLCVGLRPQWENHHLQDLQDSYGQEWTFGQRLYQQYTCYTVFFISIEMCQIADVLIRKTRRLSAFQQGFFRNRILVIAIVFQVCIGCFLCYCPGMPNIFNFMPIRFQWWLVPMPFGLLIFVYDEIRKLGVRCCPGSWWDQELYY
T1 sequence (P18434 whole entry partner): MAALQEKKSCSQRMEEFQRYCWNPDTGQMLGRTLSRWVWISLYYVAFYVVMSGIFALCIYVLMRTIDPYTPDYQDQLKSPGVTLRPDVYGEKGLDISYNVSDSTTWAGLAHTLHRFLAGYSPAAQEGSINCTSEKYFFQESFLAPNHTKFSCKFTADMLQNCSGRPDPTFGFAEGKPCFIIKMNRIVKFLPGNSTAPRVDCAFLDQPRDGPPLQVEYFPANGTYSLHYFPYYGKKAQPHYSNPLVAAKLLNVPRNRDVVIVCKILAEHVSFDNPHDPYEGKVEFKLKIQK
Protocol: Inhibitory Action on H^+ /K^+ -ATPase Activity
According to the method of Hongo et al. [The Japanese Journal of Pharmacology, 52, p295, (1990)], a microsome fraction prepared from porcine gastric mucosa was used as a standard enzyme. The standard enzyme (10-20lig protein) and the test compound (0.1-100 μM) dissolved in dimethylsulfoxide was incubated at 37° C. for 30 minutes in the 50 mM Tris-acetate buffer (pH7.4, containing 2 mM magnesium chloride, 5 mM potassium chloride). The enzyme reaction was started by adding adenosinetriphosphate (ATP). Tris at the final concentration of 2 mM, and the reaction was kept at 37° C. for 15 minutes. The reaction was stopped by adding chilled 10% trichloroacetic acid. Inorganic phosphate released during the reaction was calorimetrically determined according to the method of Fiske-Subbarow [The Journal of Biological Chemistry, 66, p375, (1925)]. H^+ /K^+ -ATPase activity was determined by the difference of the enzyme activities under the conditions with or without potassium chloride. The inhibitory activities of test compounds were determined as the 50% inhibitory concentration (IC50 value) from reaction-concentration curve, and the results are shown in Table 3.

gastric acid secretion [1] = experiment: Inhibition of Gastric Acid Secretion Observed Under Acute Fistula Method; format: in vivo, male Wistar rats; conditions: Rattus norvegicus; 30 mg/kg intraduodenally, rats, histamine 10 mg/kg s.c., cumulative 2 h
Protocol: Inhibition of Gastric Acid Secretion Observed Under Acute Fistula Method
Male Wistar rats (6-8 weeks) fasted for 24 hours (water ad libitum) were used. The rats were anesthetized by intraperitoneal administration of 1.25 g/kg of urethane. The abdomen was incised, and acute gastric fistula was connected to the stomach. Two ml of saline was injected into the stomach, and recovered every 20 minutes. The gastric acid secretion was determined by titrating of gastric juice by 150 mM sodium hydroxide up to pH7.0 using an autotitrator. Test compounds (30 mg/kg) suspended in a 0.5% aqueous sodium carboxymethylcellulose (CMC-Na) solution were administered intraduodenally. After 1 hour, gastric acid secretion was stimulated by subcutaneous administration of histamine dihydrochloride dissolved in saline (10 mg/kg). Inhibition (%) of gastric acid secretion was determined by calculating cumulative amount of the acid secretion during two hours after histamine stimulation and then comparing the cumulative amount with that in the control group. In the control group, only 0.5% aqueous CMC-Na solution was administered intraduodenally.

gastric acid secretion [2] = experiment: Inhibition of Gastric Acid Secretion Observed Under Stomach Perfusion Method; format: in vivo, male Sprague Dawrey rats; conditions: Rattus norvegicus, ip, 1 h; rats, histamine i.v. 8 mg/kg/hr, inhibition one hour after administration (1-10 mg/kg, "intrapenetorially"); read-out: ID50 (dose showing 50% inhibition of acid secretion)
Protocol: Inhibition of Gastric Acid Secretion Observed Under Stomach Perfusion Method
Male Sprague Dawrey rats (6-7weeks) fasted for 24 hours were used (water ad libitum). The rats were anesthetized by intraperitoneal administration of 1.25 g/kg of urethane. The abdomen was incised, and gastral cavity was perfused with saline during experiment. The perfusate was titrated by 10 mM sodium hydroxide up to pH5.5 using an autotitrator in accordance with Stat-method. Gastric acid secretion was stimulated by intravenous administration of histamine dihydrochloride (8 mg/kg/hr). Two hours after histamine stimulation, a test compound 1-10 mg/kg) was administered intrapenetorially. The test compound was mixed with small amount of polysorbate-80, and the mixture was suspended in saline. The test compound was evaluated using ID50 (dose showing 50% inhibition of acid secretion) which was calculated based on inhibition of the acid secretion observed one hour after administration of the compound.

[3] = parameters: species or system male ICR mice; conditions: mouse, in vivo, po, 10080 min
Protocol: Male ICR mice (6 weeks, 3 mice per group) fasted for 16 hours were used ad libitum). A test compound suspended in 5% aqueous gum arabic solution was orally administered. After administration, mortality of the animals observed during 7 days and approximate lethal dose was determined.

[4] = test system: ethanol-induced gastric lesion; experiment: Inhibition of Ethanol-induced Gastric Lesion (Protection of gastric mucosa); format: in vivo, male Wister rats; conditions: Rattus norvegicus, po, 1 h; 30 mg/kg orally, rats, ethanol 0.5 ml/100 g
Protocol: Inhibition of Ethanol-induced Gastric Lesion (Protection of gastric mucosa)
Male Wister rats (6-7weeks, 5 rats per group) fasted for 24 hours were used (water ad libitum). Test compound (30 mg/kg) suspended in 0.5% aqueous CMC-Na solution was orally administered. In the control group, only 0.5% aqueous CMC-Na solution was administered. Thirty minutes after administration, 0.5 ml/100 g body weight of ethanol was orally administered to cause gastric lesion. After one hour, the rat was killed by excessive amount of ether, and the stomach was removed and fixed with 2% formalin. After fixation, the stomach was dissected along the large curvature. The size of each of mucosal lesions was measured under dissecting microscope, and the total size of the lesions per rat was determined and used as ulcer index (mm). Inhibition of gastric lesion was determined by comparing the ulcer index in the control group and test group.

Row | SMILES | IC50 (H^+ /K^+ -ATPase) | inhibition in vivo at 30 mg/kg (gastric acid secretion [1]) | ED50 (gastric acid secretion [2]) | Approximate lethal dose [3] | inhibition in vivo at 30 mg/kg [4]
1 | Cc1ccccc1-c1nc2c3ccccc3ccn2c1N [Compound 3, 3-Amino-2-(2-methylphenyl)imidazo[2,1-a]isoquinoline] | 26 µM | 82.2% | 3.4 mg/kg | > 2,000 mg/kg | 73.5%
2 | Cc1ccccc1-c1nc2c3cc(Cl)ccc3ccn2c1N [Compound 6, 3-Amino-9-chloro-2-(2-methylphenyl)imidazo[2,1-a]isoquinoline] | 12 µM | 79.6% | 5 mg/kg | > 2,000 mg/kg | –
3 | Cc1ccccc1-c1nc2c3ccccc3cc(C)n2c1N [Compound 9, 3-Amino-5-methyl-2-(2-methylphenyl)imidazo[2,1-a]isoquinoline] | 34 µM | 90.7% | 3.1 mg/kg | > 2,000 mg/kg | –
4 | COc1ccc2ccn3c(N)c(-c4ccccc4C)nc3c2c1 [Compound 26, 3-Amino-9-methoxy-2-(2-methylphenyl)imidazo[2,1-a]isoquinoline] | 32 µM | 90.8% | 2.8 mg/kg | > 2,000 mg/kg | –
5 | CCNc1c(-c2ccccc2C)nc2c3ccccc3ccn12 [Compound 158, 3-Ethylamino-2-(2-methylphenyl)imidazo[2,1-a]isoquinoline] | 13 µM | 83.6% | 8.6 mg/kg | > 2,000 mg/kg | 92.4%
6 | CCNc1c(-c2ccccc2C)nc2c3ccccc3c(OC)cn12 [Compound 166, 3-Ethylamino-6-methoxy-2-(2-methylphenyl)imidazo[2,1-a]isoquinoline] | 23 µM | 54.9% | – | > 2,000 mg/kg | 49.7%
7 | CCNc1c(-c2sccc2C)nc2c3ccccc3c(OC)cn12 [Compound 176, 3-Ethylamino-6-methoxy-2-(3-methyl-2-thienyl)imidazo[2,1-a]isoquinoline] | 9 µM | 49.9% | – | > 2,000 mg/kg | –
8 | CCNc1c(-c2csc(Cl)c2C)nc2c3ccccc3ccn12 [Compound 179, 2-(2-Chloro-3-methyl-4-thienyl)-3-ethylaminoimidazo[2,1-a]isoquinoline] | 4.8 µM | 52.8% | – | > 2,000 mg/kg | –
9 | CCCNc1c(-c2ccccc2C)nc2c3ccccc3c(OC)cn12 [Compound 182, 6-Methoxy-2-(2-methylphenyl)-3-propylaminoimidazo[2,1-a]isoquinoline] | 11 µM | 58.4% | – | > 2,000 mg/kg | –
10 | Cc1ccccc1-c1nc2c3ccccc3ccn2c1NCCC(C)C [Compound 188, 3-Isopentylamino-2-(2-methylphenyl)imidazo[2,1-a]isoquinoline] | 10.5 µM | 79.1% | – | > 2,000 mg/kg | –
11 | CCN(CCOC)c1c(-c2ccccc2C)nc2c3ccccc3ccn12 [Compound 205, 3-[N-Ethyl-N-(2-methoxyethyl)amino]-2-(2-methylphenyl)imidazo[2,1-a]isoquinoline] | – | 86% | – | > 2,000 mg/kg | 98.6%
12 | CCN(CCCSC)c1c(-c2ccccc2C)nc2c3ccccc3ccn12 [Compound 214, 3-[N-Ethyl-N-(3-methylthiopropyl)amino]-^2-(2-methylphenyl)imidazo[2,1-a]isoquinoline] | 7 µM | 56% | – | – | –
13 | CCc1ccccc1-c1nc2c3ccccc3ccn2c1N(CC)CCC(C)C [Compound 216, 3-(N-Ethyl-N-isopentylamino)-2-(2-ethylphenyl)imidazo[2,1-a]isoquinoline] | 2.5 µM | – | – | > 2,000 mg/kg | 81.7%
14 | C=CCNc1c(-c2ccccc2C)nc2c3ccccc3ccn12 [Compound 221, 3-allylamino-2-(2-methylphenyl)imidazo[2,1-a]isoquinoline] | – | 66.7% | – | > 2,000 mg/kg | 73.7%
15 | C=CCN(CC)c1c(-c2ccccc2C)nc2c3ccccc3ccn12 [Compound 222, 3-(N-Allyl-N-ethylamino)-2-(2-methylphenyl)imidazo[2,1-a]isoquinoline] | 2 µM | 72.6% | – | > 2,000 mg/kg | 98.8%
16 | C=CCN(CC=C)c1c(-c2ccccc2C)nc2c3ccccc3ccn12 [Compound 223, 3-diallylamino-2-(2-methylphenyl)imidazo[2,1-a]isoquinoline] | 4.5 µM | 60.1% | – | – | –
17 | Cc1ccccc1-c1nc2c3ccsc3cc(C)n2c1N [Compound 236, 3-Amino-5-methyl-2-(2-methylphenyl)imidazo[1,2-a]thieno[3,2-c]pyridine] | 4.7 µM | – | 1.4 mg/kg | > 2,000 mg/kg | 91.5%
18 | Cc1sccc1-c1nc2c3ccsc3ccn2c1N [Compound 254, 3-Amino-2-(2-methyl-3-thienyl)imidazo[1,2-a]thieno[3,2-c]pyridine] | 4.5 µM | – | 1.1 mg/kg | – | 92.4%
19 | Cc1cc(-c2nc3c4ccsc4ccn3c2N)c(C)o1 [Compound 271, 3-Amino-2-(2,5-dimethyl-3-furyl)imidazo[1,2-a]thieno[3,2-c]pyridine] | 5.2 µM | – | 2.4 mg/kg | – | 99.5%
